Measured values as given in ChEMBL document CHEMBL3045645, “Organophosphorus derivatives containing isatin-3-hydrazones as chemotherapeutants against fungal pathogens of sugarcane” (2008).

Experiments:
Assay type in all cases: functional
Conditions in all cases: 168 h, read-out: GI
[1] = test system: Curvularia pallescens; test: Antifungal activity against Cochliobolus pallescens assessed as mycelial growth inhibition at 1000 ppm at 28 +/-2 degC after 7 days by food poison technique
[2] = test system: Curvularia pallescens; test: Antifungal activity against Cochliobolus pallescens assessed as mycelial growth inhibition at 100 ppm at 28 +/-2 degC after 7 days by food poison technique
[3] = test system: Curvularia pallescens; test: Antifungal activity against Cochliobolus pallescens assessed as mycelial growth inhibition at 10 ppm at 28 +/-2 degC after 7 days by food poison technique
[4] = test system: Fusarium oxysporum; test: Antifungal activity against Fusarium oxysporum assessed as mycelial growth inhibition at 1000 ppm at 28 +/-2 degC after 7 days by food poison technique
[5] = test system: Fusarium oxysporum; test: Antifungal activity against Fusarium oxysporum assessed as mycelial growth inhibition at 100 ppm at 28 +/-2 degC after 7 days by food poison technique
[6] = test system: Fusarium oxysporum; test: Antifungal activity against Fusarium oxysporum assessed as mycelial growth inhibition at 10 ppm at 28 +/-2 degC after 7 days by food poison technique
[7] = test system: Colletotrichum falcatum; test: Antifungal activity against Glomerella tucumanensis assessed as mycelial growth inhibition at 1000 ppm at 28 +/-2 degC after 7 days by food poison technique
[8] = test system: Colletotrichum falcatum; test: Antifungal activity against Glomerella tucumanensis assessed as mycelial growth inhibition at 100 ppm at 28 +/-2 degC after 7 days by food poison technique
[9] = test system: Colletotrichum falcatum; test: Antifungal activity against Glomerella tucumanensis assessed as mycelial growth inhibition at 10 ppm at 28 +/-2 degC after 7 days by food poison technique

Row | SMILES | inhibition of growth at 1000 ppm [1] | inhibition of growth at 100 ppm [2] | inhibition of growth at 10 ppm [3] | inhibition of growth at 1000 ppm [4] | inhibition of growth at 100 ppm [5] | inhibition of growth at 10 ppm [6] | inhibition of growth at 1000 ppm [7] | inhibition of growth at 100 ppm [8] | inhibition of growth at 10 ppm [9]
1 | CCOP(=O)(OCC)O/C(COc1ccc(Cl)cc1)=N\N=C1/C(=O)Nc2ccccc21 | 82.6% | 71.8% | 60.9% | 85.6% | 74.2% | 61.8% | 80.2% | 71.6% | 64.8%
2 | CCOP(=O)(OCC)O/C(=N\N=C1/C(=O)Nc2ccccc21)c1ccccc1P(=O)(OCC)OCC | 65.6% | 56.7% | 47.7% | 66.5% | 56.2% | 49.8% | 68.8% | 59.9% | 51.5%
3 | CCOP(=O)(OCC)O/C(COc1ccccc1P(=O)(OCC)OCC)=N\N=C1/C(=O)Nc2ccccc21 | 71.2% | 64.6% | 57.2% | 74.2% | 64% | 58.6% | 78.2% | 67.4% | 60.2%
4 | CCOP(=S)(OCC)O/C(COc1ccccc1P(=S)(OCC)OCC)=N\N=C1/C(=O)Nc2ccccc21 | 93.8% | 79.9% | 72.8% | 92.8% | 80% | 71.6% | 95.6% | 81.2% | 72.5%
5 | CCOP(=O)(OCC)O/C(=N\N=C1/C(=O)Nc2ccccc21)c1ccc([N+](=O)[O-])cc1 | 51.8% | 38.6% | 26.8% | 56.2% | 39.6% | 29.4% | 54.2% | 40.1% | 30.2%
6 | CCOP(=O)(OCC)O/C(=N\N=C1/C(=O)Nc2ccccc21)c1ccccc1 | 59.8% | 49.2% | 40.4% | 61.8% | 50.4% | 41.2% | 60.8% | 49.4% | 40.3%
7 | CCOP(=S)(OCC)O/C(=N\N=C1/C(=O)Nc2ccccc21)c1ccccc1 | 73.5% | 65.8% | 55.7% | 74.2% | 69.2% | 55.2% | 70.8% | 65.1% | 58.2%
8 | CCOP(=O)(OCC)O/C(COc1ccc(OP(=O)(OCC)OCC)cc1)=N\N=C1/C(=O)Nc2ccccc21 | 76.4% | 70% | 62.8% | 78.6% | 69.2% | 60.2% | 80.6% | 70.2% | 61.5%
9 | CCOP(=O)(OCC)O/C(COc1ccccc1)=N\N=C1/C(=O)Nc2ccccc21 | 68.8% | 58.2% | 50.1% | 69.6% | 59.2% | 50% | 70.2% | 61.6% | 51.2%
10 | CCOP(=S)(OCC)O/C(=N\N=C1/C(=O)Nc2ccccc21)c1ccc(Cl)cc1 | 85.8% | 71.6% | 61.6% | 85.8% | 78.2% | 68.6% | 88.6% | 72.4% | 60.5%
11 | CCOP(=S)(OCC)O/C(COc1ccc([N+](=O)[O-])cc1)=N\N=C1/C(=O)Nc2ccccc21 | 65.6% | 52.8% | 40.6% | 67.8% | 52.6% | 44.6% | 68.4% | 56.2% | 48.2%
12 | CCOP(=S)(OCC)O/C(=N\N=C1/C(=O)Nc2ccccc21)c1ccc([N+](=O)[O-])cc1 | 57.2% | 45.6% | 36.2% | 58.2% | 47.2% | 40% | 58.2% | 46.2% | 39.8%
13 | CCOP(=S)(OCC)O/C(COc1ccccc1)=N\N=C1/C(=O)Nc2ccccc21 | 74.2% | 62.7% | 52.6% | 76.8% | 69.1% | 54% | 75.2% | 67% | 56.2%
14 | CCOP(=S)(OCC)O/C(=N\N=C1/C(=O)Nc2ccccc21)c1ccc(OP(=S)(OCC)OCC)cc1 | 81.4% | 66.2% | 56% | 82.4% | 68.2% | 57.1% | 87% | 68.2% | 58.2%
15 | CCOP(=O)(OCC)O/C(=N\N=C1/C(=O)Nc2ccccc21)c1ccc(Cl)cc1 | 71.2% | 62.4% | 51.6% | 72.6% | 67.8% | 54.2% | 69.6% | 64.2% | 56.8%
16 | CCOP(=O)(OCC)O/C(=N\N=C1/C(=O)Nc2ccccc21)c1ccc(OP(=O)(OCC)OCC)cc1 | 67.8% | 51.7% | 51.8% | 71.5% | 58% | 52.6% | 69.2% | 62.4% | 52.3%
17 | CCOP(=O)(OCC)O/C(COc1ccc([N+](=O)[O-])cc1)=N\N=C1/C(=O)Nc2ccccc21 | 55.6% | 42.8% | 34% | 61.5% | 45.8% | 37.2% | 60.2% | 48.6% | 38.6%
18 | CCOP(=S)(OCC)O/C(=N\N=C1/C(=O)Nc2ccccc21)c1ccccc1P(=S)(OCC)OCC | 80.5% | 64.2% | 54.2% | 82.8% | 66.5% | 55.2% | 86.6% | 67.2% | 57.6%
